The values that follow come from paper PMC4145669, “The structure, function and properties of sirohaem decarboxylase - an enzyme with structural homology to a transcription factor family that is part of the alternative haem biosynthesis pathway” (Molecular Microbiology, 2014).

The test deals with T1, D. desulfuricans AhbA/B (sirohaem decarboxylase) (Desulfovibrio desulfuricans, UniProt B8J364+B8J3A4).
T1 construct: gene Ddes_0286; full-length AhbA (untagged) and AhbB with N-terminal hexa-His tag (kept), coexpressed in E. coli; heterodimer, 40 kDa by gel filtration
T1 sequence (B8J364 1-173): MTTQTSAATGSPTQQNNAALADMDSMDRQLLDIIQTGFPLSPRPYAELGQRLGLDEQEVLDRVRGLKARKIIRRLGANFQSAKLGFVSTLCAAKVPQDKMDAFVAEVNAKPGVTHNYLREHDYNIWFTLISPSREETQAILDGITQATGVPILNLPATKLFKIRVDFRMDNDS
T1 sequence (B8J3A4 1-159): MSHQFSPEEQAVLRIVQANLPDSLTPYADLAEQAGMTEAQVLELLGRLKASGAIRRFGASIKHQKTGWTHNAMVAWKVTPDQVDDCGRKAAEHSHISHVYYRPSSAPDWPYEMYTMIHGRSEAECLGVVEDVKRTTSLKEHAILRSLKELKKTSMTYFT
Nature of the test: anaerobic stopped assay, MS quantification, global fit. The note with it: competitive model of both substrates and product, single active site, 23 μM sirohaem, 2.3 μM enzyme. Format: biochemical.

Read-outs that look alike come from different tables or passages of the source.

monodecarboxysirohaem [MDSH]: the Km (intermediate formed in situ from sirohaem, read-out: Km2) came to 9.94 ± 1.19 µM.
For sirohaem [SH], the Km (read-out: Km1) turned out to be 11.7 ± 3.36 µM.
